The assay concerns the target TrkA (Homo sapiens (Human), UniProt P04629). Nature of the assay: TrkA kinase HTRF enzyme inhibition assay. It counts as biochemical. The conditions noted are these: TrkA pre-incubated with 200 μM ATP. The method in brief: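 HTRF ratio read-out of biotin-peptide (125 nM) phosphorylation, 1 h reaction after TrkA (2-10 nM) auto-activation with ATP (200 μM) for 20 min and 10 min compound pre-incubation in 50 mM HEPES pH 7.4 with MgCl2/MnCl2. Percent inhibition from initial rates in duplicate, fitted to single-site equation for IC50.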

Chain of TrkA (P04629 33-796): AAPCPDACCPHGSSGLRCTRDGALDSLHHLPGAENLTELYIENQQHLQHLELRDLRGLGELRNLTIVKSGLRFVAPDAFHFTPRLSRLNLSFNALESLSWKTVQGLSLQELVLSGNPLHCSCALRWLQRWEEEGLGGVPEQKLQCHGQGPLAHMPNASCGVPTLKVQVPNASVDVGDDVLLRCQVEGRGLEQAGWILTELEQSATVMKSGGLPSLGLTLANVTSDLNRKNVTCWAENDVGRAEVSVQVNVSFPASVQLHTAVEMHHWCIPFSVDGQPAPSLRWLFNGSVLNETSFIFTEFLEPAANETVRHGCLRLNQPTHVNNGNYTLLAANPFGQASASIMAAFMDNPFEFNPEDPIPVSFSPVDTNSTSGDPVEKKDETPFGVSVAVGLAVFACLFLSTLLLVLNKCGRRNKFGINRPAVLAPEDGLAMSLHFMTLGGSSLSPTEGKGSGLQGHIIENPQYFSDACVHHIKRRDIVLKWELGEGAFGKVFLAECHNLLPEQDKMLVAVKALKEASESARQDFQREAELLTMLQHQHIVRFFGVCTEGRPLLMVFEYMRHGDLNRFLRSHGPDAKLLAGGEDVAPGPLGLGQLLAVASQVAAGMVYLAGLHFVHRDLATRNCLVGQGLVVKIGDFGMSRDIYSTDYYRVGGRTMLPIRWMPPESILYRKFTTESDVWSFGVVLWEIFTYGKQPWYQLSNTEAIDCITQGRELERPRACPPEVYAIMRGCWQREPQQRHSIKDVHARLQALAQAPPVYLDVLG

`CCOc1nc(CCO)ccc1NC(=O)c1coc2c1C(=O)NCC2` [Example 109, N-[2-ethoxy-6-(2-hydroxyethyl)pyridin-3-yl]-4-oxo-4,5,6,7-tetrahydrofuro[3,2-c]pyridine-3-carboxamide] displayed an IC50 of 225 nM.
Turning to `COc1cc(N2CCN(C(C)=O)CC2)ccc1NC(=O)c1coc2c1C(=O)C1(CCNCC1)OC2` [Example 170, N-[4-(4-acetylpiperazin-1-yl)-2-methoxyphenyl]-4-oxo-4,7-dihydrospiro[furo[2,3-c]pyran-5,4′-piperidine]-3-carboxamide], the IC50 was 56.5 nM.
With `CCOc1ccc(NC(=O)c2coc3c2C(=O)NCC3)cn1` [Example 44, N-(6-ethoxypyridin-3-yl)-4-oxo-4,5,6,7-tetrahydrofuro[3,2-c]pyridine-3-carboxamide], it took 4470 nM to reach half-maximal inhibition (IC50).
Compound `Cn1cc2cc(NC(=O)c3coc4c3C(=O)NCC4)ccc2n1` [Example 1, N-(2-methyl-2H-indazol-5-yl)-4-oxo-4,5,6,7-tetrahydrofuro[3,2-c]pyridine-3-carboxamide] registered an IC50 of 44.2 nM.
In turn, `O=C(Nc1nc2ccccc2s1)c1coc2c1C(=O)NCC2` [Example 47, N-(1,3-benzothiazol-2-yl)-4-oxo-4,5,6,7-tetrahydrofuro[3,2-c]pyridine-3-carboxamide] showed an IC50 of 1220 nM.
`CCOc1nc(N2CCN(C(C)=O)CC2)ccc1NC(=O)c1coc2c1C(=O)N(CCCO)CC2` [Example 89, N-[6-(4-acetylpiperazin-1-yl)-2-ethoxypyridin-3-yl]-5-(3-hydroxypropyl)-4-oxo-4,5,6,7-tetrahydrofuro[3,2-c]pyridine-3-carboxamide] displayed an IC50 of 4.7 nM.
On to `CCOc1nc(N2CCN(C(C)=O)CC2)ccc1NC(=O)c1coc2c1C(=O)NC1(COC1)C2` [Example 114, N-[6-(4-acetylpiperazin-1-yl)-2-ethoxypyridin-3-yl]-4-oxo-4,7-dihydro-5H-spiro[furo[3,2-c]pyridine-6,3′-oxetane]-3-carboxamide], for which the IC50 is 7.2 nM.
The compound `Cn1ncc2cc(NC(=O)c3coc4c3C(=O)CC(C)(C)C4)ccc21` [Example 146, 6,6-dimethyl-N-(1-methyl-1H-indazol-5-yl)-4-oxo-4,5,6,7-tetrahydro-1-benzofuran-3-carboxamide] displayed an IC50 of 34.1 nM.
`N#Cc1cccc(NC(=O)c2coc3c2C(=O)NCC3)c1` [Example 43, N-(3-cyanophenyl)-4-oxo-4,5,6,7-tetrahydrofuro[3,2-c]pyridine-3-carboxamide] had an IC50 of 5640 nM.
For `CCOc1nc(N2CCN(C(C)=O)CC2)ccc1NC(=O)c1coc2c1C(=O)NC1(CCCCC1)C2` [Example 112, N-[6-(4-acetylpiperazin-1-yl)-2-ethoxypyridin-3-yl]-4′-oxo-4′,7′-dihydro-5′H-spiro[cyclohexane-1,6′-furo[3,2-c]pyridine]-3′-carboxamide], the IC50 stood at 27.3 nM.
The result for `CCOc1nc(N2CCN(C(C)=O)CC2)ccc1NC(=O)c1coc2c1C(=O)C(c1cc(F)ccc1F)CC2` (centres unmarked) [Example 185, N-[6-(4-acetylpiperazin-1-yl)-2-ethoxypyridin-3-yl]-5-(2,5-difluorophenyl)-4-oxo-4,5,6,7-tetrahydro-1-benzofuran-3-carboxamide] reads 6.6 nM; that for `COc1cc(N2CCN(C(C)=O)CC2)ccc1NC(=O)c1coc2c1C(=O)CC(C)(C)C2` [Example 158, N-[4-(4-acetylpiperazin-1-yl)-2-methoxyphenyl]-6,6-dimethyl-4-oxo-4,5,6,7-tetrahydro-1-benzofuran-3-carboxamide], 4.2 nM.
For `CC(=O)N1CCN(c2ccc(NC(=O)c3coc4c3C(=O)NC(C)(C)C4)c(OC3C[S+]([O-])C3)n2)CC1` (centres unmarked) [Example 183, N-{6-(4-acetylpiperazin-1-yl)-2-[(1-oxidothietan-3-yl)oxy]pyridin-3-yl}-6,6-dimethyl-4-oxo-4,5,6,7-tetrahydrofuro[3,2-c]pyridine-3-carboxamide], half-maximal inhibition (IC50) was put at 4.8 nM.
Regarding `Cn1cc2cc(NC(=O)c3coc4c3C(=O)CC3(CCC3)C4)ccc2n1` [Example 150, N-(2-methyl-2H-indazol-5-yl)-4-oxo-4,7-dihydro-5H-spiro[1-benzofuran-6,1′-cyclobutane]-3-carboxamide], it took 43.2 nM to reach half-maximal inhibition (IC50).
In turn, `O=C(Nc1cnccn1)c1coc2c1C(=O)NCC2` [Example 37, 4-oxo-N-(pyrazin-2-yl)-4,5,6,7-tetrahydrofuro[3,2-c]pyridine-3-carboxamide] registered a 50% inhibitory concentration (IC50) of 3210 nM.
`COc1ccc(NC(=O)c2coc3c2C(=O)NCC3)cn1` [Example 41, N-(6-methoxypyridin-3-yl)-4-oxo-4,5,6,7-tetrahydrofuro[3,2-c]pyridine-3-carboxamide] came in with an IC50 of 1390 nM.
Take `CN1CCN(c2ccc(NC(=O)c3coc4c3C(=O)NCC4)nc2)CC1` [Example 16, N-[5-(4-methylpiperazin-1-yl)pyridin-2-yl]-4-oxo-4,5,6,7-tetrahydrofuro[3,2-c]pyridine-3-carboxamide]: the IC50 was found to be 279 nM.
The compound `COc1ccc(NC(=O)c2coc3c2C(=O)N(C)CC3)c(OC)n1` [Example 65, N-(2,6-dimethoxypyridin-3-yl)-5-methyl-4-oxo-4,5,6,7-tetrahydrofuro[3,2-c]pyridine-3-carboxamide] yielded an IC50 of 146 nM.
`CC(=O)N1CCN(c2ccc(NC(=O)c3coc4c3C(=O)CC(C)(C)C4)nc2)CC1` [Example 156, N-[5-(4-acetylpiperazin-1-yl)pyridin-2-yl]-6,6-dimethyl-4-oxo-4,5,6,7-tetrahydro-1-benzofuran-3-carboxamide] showed an IC50 of 46.7 nM.
In turn, `COCCOc1nc(N2CCN(C(C)=O)CC2)ccc1NC(=O)c1coc2c1C(=O)N(CCO)CC2` [Example 87, N-[6-(4-acetylpiperazin-1-yl)-2-(2-methoxyethoxyl)pyridin-3-yl]-5-(2-hydroxyethyl)-4-oxo-4,5,6,7-tetrahydrofuro[3,2-c]pyridine-3-carboxamide] yielded an IC50 of 224 nM.
On to `COc1cc(N2CCNCC2)ccc1NC(=O)c1coc2c1C(=O)NC(C)C2` (centres unmarked) [Example 124, N-[2-methoxy-4-(piperazin-1-yl)phenyl]-6-methyl-4-oxo-4,5,6,7-tetrahydrofuro[3,2-c]pyridine-3-carboxamide], for which 73.7 nM corresponded to half-maximal inhibition (IC50).
As for `CCOc1nc(N2CCN(C(=NC#N)NC)CC2)ccc1NC(=O)c1coc2c1C(=O)NCC2` [Example 93, N-{6-[4-(N′-cyano-N-methylcarbamimidoyl)piperazin-1-yl]-2-ethoxypyridin-3-yl}-4-oxo-4,5,6,7-tetrahydrofuro[3,2-c]pyridine-3-carboxamide], the figure is 16.3 nM; as for `COc1cc(N2CCNCC2)ccc1NC(=O)c1coc2c1C(=O)CC(C)(C)C2` [Example 157, N-[2-methoxy-4-(piperazin-1-yl)phenyl]-6,6-dimethyl-4-oxo-4,5,6,7-tetrahydro-1-benzofuran-3-carboxamide], 6.4 nM.
`CN1CCN(CCn2ncc3cc(NC(=O)c4coc5c4C(=O)NCC5)ccc32)CC1` [Example 57, N-{1-[2-(4-methylpiperazin-1-yl)ethyl]-1H-indazol-5-yl}-4-oxo-4,5,6,7-tetrahydrofuro[3,2-c]pyridine-3-carboxamide] returned an IC50 of 34.6 nM.
Consider `CC1(C)CC(=O)c2c(C(=O)Nc3ccc(N4CCNCC4)nc3)coc2C1` [Example 149, 6,6-dimethyl-4-oxo-N-[6-(piperazin-1-yl)pyridin-3-yl]-4,5,6,7-tetrahydro-1-benzofuran-3-carboxamide], for which the concentration for half-maximal inhibition (IC50) is 135 nM.
`CCOc1nc(N2CCN(C(=O)OC(C)(C)C)CC2)ccc1NC(=O)c1coc2c1C(=O)NCC2` [Example 92, tert-butyl 4-(6-ethoxy-5-{[(4-oxo-4,5,6,7-tetrahydrofuro[3,2-c]pyridin-3-yl)carbonyl]amino}pyridin-2-yl)piperazine-1-carboxylate] gave an IC50 of 18.2 nM.
The result for `CCOc1nc(N2CCN(C(C)=O)CC2)ccc1NC(=O)c1coc2c1C(=O)N(C[C@@H](C)O)CC2` [Example 95, N-[6-(4-acetylpiperazin-1-yl)-2-ethoxypyridin-3-yl]-5-[(2R)-2-hydroxypropyl]-4-oxo-4,5,6,7-tetrahydrofuro[3,2-c]pyridine-3-carboxamide] reads 4.3 nM; that for `O=C(Nc1ccc(Cl)cn1)c1coc2c1C(=O)NCC2` [Example 42, N-(5-chloropyridin-2-yl)-4-oxo-4,5,6,7-tetrahydrofuro[3,2-c]pyridine-3-carboxamide], 918 nM.
Consider `CCOc1nc(N2CCN(C(C)=O)CC2)ccc1NC(=O)c1coc2c1C(=O)N(CC(O)CO)C(C)(C)C2` (centres unmarked) [Example 119, N-[6-(4-acetylpiperazin-1-yl)-2-ethoxypyridin-3-yl]-5-(2,3-dihydroxypropyl)-6,6-dimethyl-4-oxo-4,5,6,7-tetrahydrofuro[3,2-c]pyridine-3-carboxamide], for which inhibition was half-maximal at 6.8 nM (IC50).
With `CC(C)Oc1nc(N2C[C@H]3CCN(C(=O)N4CCN(C)CC4)[C@H]3C2)ccc1NC(=O)c1coc2c1C(=O)NC(C)(C)C2` [Example 132, N-{2-isopropoxy-6-[(3aR,6aR)-1-[(4-methylpiperazin-1-yl)carbonyl]hexahydropyrrolo[3,4-b]pyrrol-5(1H)-yl]pyridin-3-yl}-6,6-dimethyl-4-oxo-4,5,6,7-tetrahydrofuro[3,2-c]pyridine-3-carboxamide], inhibition was half-maximal at 6.9 nM (IC50).
Consider `CC(=O)N1CCN(c2ccc(NC(=O)c3coc4c3C(=O)NC(C)(C)C4)c(OC(C)C)n2)[C@@H](CO)C1` [Example 139, N-{6-[(2R)-4-acetyl-2-(hydroxymethyl)piperazin-1-yl]-2-isopropoxypyridin-3-yl}-6,6-dimethyl-4-oxo-4,5,6,7-tetrahydrofuro[3,2-c]pyridine-3-carboxamide], for which the IC50 was 2.4 nM.
Take `CCOc1nc(N2CCN(C(C)=O)CC2)ccc1NC(=O)c1coc2c1C(=O)NC1(C2)CN(C(C)=O)C1` [Example 113, 1-acetyl-N-[6-(4-acetylpiperazin-1-yl)-2-ethoxypyridin-3-yl]-4′-oxo-4′,7′-dihydro-5′H-spiro[azetidine-3,6′-furo[3,2-c]pyridine]-3′-carboxamide]: the IC50 came to 65.4 nM.

The IC50 is the concentration at which inhibition is half-maximal.

The record behind these values is patent publication US9777020B2, “Furo-3-carboxamide derivatives and methods of use” (AbbVie Inc., priority 2014, dated 2017).
